{"source": "patent US20140066434A1", "about": "“Methods and Compositions for Treating Parkinson's Disease” (ARIAD PHARMACEUTICALS, INC., priority 2011, published 2014)", "experiment": "Phase 1 clinical trial, safety"}
{"compound": "Cc1ccc(C(=O)Nc2ccc(CN3CCN(C)CC3)c(C(F)(F)F)c2)cc1C#Cc1cnc2cccnn12", "note": "[ponatinib, 3-(Imidazo[1,2-b]pyridazin-3-ylethynyl)-4-methyl-N-(4-((4-methylpiperazin-1-yl)methyl)-3-(trifluoromethyl)phenyl)benzamide]", "values": [{"measurement": "DLTs", "setting": "45 mg cohort", "result": "a reversible rash was seen with one patient"}, {"measurement": "DLTs", "setting": "60 mg cohort", "result": "four patients developed reversible pancreatic related DLT (pancreatitis)"}, {"measurement": "DLTs", "setting": "2 to 30 mg cohorts", "result": "No DLTs"}, {"measurement": "drug-related adverse events of any grade: anemia", "setting": "phase 1, all cohorts", "result": 12, "unit": "%"}, {"measurement": "drug-related adverse events of any grade: lipase increase", "setting": "phase 1, all cohorts", "result": 12, "unit": "%"}, {"measurement": "drug-related adverse events of any grade: nausea", "setting": "phase 1, all cohorts", "result": 12, "unit": "%"}, {"measurement": "drug-related adverse events of any grade: rash", "setting": "phase 1, all cohorts", "result": 12, "unit": "%"}, {"measurement": "drug-related adverse events of any grade: thrombocytopenia", "setting": "phase 1, all cohorts", "result": 25, "unit": "%"}, {"measurement": "maximum tolerated dose (MTD)", "setting": "phase 1, mono-hydrochloride salt", "result": 45, "unit": "mg"}]}
